Patent US20230130102A1, “Na/K-ATPase LIGANDS AND USE THEREOF FOR TREATMENT OF CANCER” (Marshall University Research Corporation, priority 2019, published 2023)

Key:
α1 NKA/Src receptor = assay: multi-step assay of MB5 derivatives (NKA and E-cadherin expression, 3D-spheroid invasion); format: cell-based; settings: for potency relative to MB5: ability to restore NKA and E-cadherin expression and 3D-spheroid invasion data
Description: A multi-step assay was further designed to identify which compounds among the MB5 derivatives could be developed as an anti-cancer agent in terms of their potential to stop tumor invasion and growth. This multi-step assay included: (A) an ATPase activity assay- to confirm the binding of derivatives to NKA; (B) an assay to measure inhibition of ouabain-induced ERK activation and NKA endocytosis as well as basal Src/ERK/endocytotic activity in PY-17 cells (NKA/Src inverse agonist); (C) an assay to measure the ability to increase the expression of α1 NKA and E-cadherin level and decrease mesenchymal markers (ZEB1, SNAIL, vimentin) and Myc in cancer cells; (D) a 3D culture to test the anti-invasive and anti-growth potential of spheroids; and (E) an in vivo tumor xenograft model (by transplantation into NOD/SCOD mice). Upon analysis of the results of these experiments, it was believed that some of the MB5 derivative compounds show better or similar properties than MB5 as shown for certain of the compounds in FIGS. 6A-6G. Examples of experiments testing the derivatives are further provided for MIIRMB5 D1 (FIGS. 7A-7B), MIIRMB5 D3 (FIGS. 8A-8C), MIIRMB5 D4 (FIGS. 9A-9C), MIIRMB5 D5 (FIGS. 10A-10C), MIIRMB5 D6 (FIGS. 11A-11C), MIIRMB5 D7 (FIGS. 12A-12B), MIIRMB5 D13 (FIGS. 13A-13C), MIIRMB5 D14 (FIGS. 14A-14C), and MIIRMB5 D15 (FIGS. 15A-15C).

DU145 derived subclones = assay: Western blot / immunostaining of EMT markers, Src/FAK activation and proliferation markers in DU145 derived subclones; format: cell-based, human; settings: subclone 2 cells, PP2 treatment (24 hours)
YFP-tagged α1 NKA = molecular target: T1, YFP-tagged α1 NKA (Rattus norvegicus, UniProt P06685); assay: ouabain-induced α1 NKA endocytosis in YFP-α1-TCN cells; format: cell-based; settings: TCN-YFP α1 cells
T1 construct: expressed in transfected cells; host or cells: YFP-α1-TCN cells
Method: It is appreciated that ouabain induces Src/ERK activation (increased protein phosphorylation) of LLC-PK1 cells by binding to α1 NKA and thereby initiates a signaling cascade which results in the endocytosis of the α1 NKA to terminate the signaling.
α1 NKA endocytosis assay. Endocytosis assay was performed as described before.
Characterization of MB5 activity on the NKA receptor function known as the NKA/Src binary receptor mechanism was conducted in a pig kidney epithelial cells (LLC-PK1)-based platform using immunostaining and Western blot analyses. […] The change of NKA conformation that occurs upon binding of agonists such as ouabain, results in the release and activation of the Src kinase domain from the “Naktide” site of NKA CD3, while the other interaction (constitutive) persists between NKA CD2 and the SH2 domain of Src.

[1] = molecular target: T2, α1 NKA/Src receptor complex (Sus scrofa, UniProt P05024); assay: ouabain-induced Src/ERK activation in LLC-PK1 cells (immunostaining, Western blot); format: cell-based, pig; settings: baseline
T2 construct: endogenous in cells; host or cells: LLC-PK1
Method: Western blot, Immunoprecipitation and Immunostaining. Cells were grown to 100% confluency and Western blot were performed as described before. Images were quantified with ImageJ software from NIH. Immunoprecipitation studies were performed as described before. α1 NKA immunostaining was performed by growing cells on sterilized coverslips in 6 well tissue culture plates and permeabilization/fixation with ice-cold methanol followed by blocking with 5% horse serum and 0.1% Triton X-100 in 1× Phosphate buffered saline (PBS) for 30 minutes. Coverslips were then stained with an anti-α1 NKA antibody (Millipore, Cat #05-369) at 1:100 dilution in 1% BSA (Bovine Serum Albumin) containing 1×PBS solution for overnight. Next day after three washes, coverslips were stained with Alexa Fluor 488 conjugated anti-mouse secondary antibody (Thermo-Fisher) for 1 hour, washed extensively and then imaged using a fluorescent microscope with GFP filter or confocal microscope (LEICA-DMIRE2). E-cadherin and occludin immunostaining was performed in a similar manner. Phospho-Src, phospho ERK1/2 immunostaining were performed as described before and images were taken with a LEICA DMIRE2 confocal microscope.
Characterization of MB5 activity on the NKA receptor function known as the NKA/Src binary receptor mechanism was conducted in a pig kidney epithelial cells (LLC-PK1)-based platform using immunostaining and Western blot analyses. […] The change of NKA conformation that occurs upon binding of agonists such as ouabain, results in the release and activation of the Src kinase domain from the “Naktide” site of NKA CD3, while the other interaction (constitutive) persists between NKA CD2 and the SH2 domain of Src. […] In LLC-PK1-derived cells with low NKA receptor constitutive activity due to substantial reduction (over 80%) of α1 NKA expression by siRNA (PY17 cells), increased basal Src and ERK activity is observed due to the abnormally high amount of Src kinase that remains in an active conformation. […]

SMILES: O=c1[nH]c2c(ccc3c(=O)c4cccc(O)c4oc32)o1 [MIIRMB5 D3]
- potency relative to MB5 (α1 NKA/Src receptor): about 10 fold

SMILES: Nc1c(O)ccc2c(=O)c3cccc(O)c3oc12 [MIIRMB5 D4]
- potency relative to MB5 (α1 NKA/Src receptor): about 10 fold

SMILES: O=S1(=O)c2cccc(O)c2Oc2c1ccc(O)c2O [MIIRMB5 D13]
- effective concentration / dosage (α1 NKA/Src receptor; NKA and E-cadherin expression, 3D-spheroid invasion): about 100 nM

SMILES: CC(C)(C)n1nc(-c2ccc(Cl)cc2)c2c(N)ncnc21 [PP2, reference compound]
- E-cadherin expression (DU145 derived subclones): increase in E-cadherin expression

SMILES: C[C@@H]1O[C@@H](O[C@H]2C[C@@H](O)[C@]3(CO)[C@H]4[C@H](O)C[C@]5(C)[C@@H](C6=CC(=O)OC6)CC[C@]5(O)[C@@H]4CC[C@]3(O)C2)[C@H](O)[C@H](O)[C@H]1O [ouabain, reference compound]
- α1 NKA internalization (endocytosis) by the compound alone (YFP-tagged α1 NKA): induced α1 NKA internalization (endocytosis)
- ERK activation / NKA receptor function by the compound alone [1]: activated ERK signal
